From US20040170622A1, “Methods and compositions for modulating XBP-1 activity” (President and Fellows of Harvard College, priority 2002, published 2004) come the findings set out here.

Entries after “also recorded” stand apart in the source; their conditions may differ. Where a SMILES comes first, the peptide text is derived from it. The star is where a group is joined. Cbz = O=C(OCc1ccccc1)*

Common to all, as to type: cell-based
Assay [1] concerns PERK. Description: PERK autophosphorylation in J558 cells.
Assay [2] has as its system IRE1α-mediated XBP-1 mRNA splicing. Description: XBP-1 mRNA level and splicing in J558 cells (Northern blot, RT-PCR). The note with it: for XBP-1 mRNA splicing, agent alone (RT-PCR) / overall levels of XBP-1 RNA (Northern blot): J558 cells. The method, then:
(A) XBP-1 mRNA levels in ER stressed J558 cells treated with Tm for 4 hrs in the absence or presence of MG-132. Cells were pretreated with MG-132 for 1 hr before adding Tm. XBP-1 mRNA levels were determined by Northern blot analysis. […] (C) Effect of a panel of PIs on XBP-1 splicing. Cells were treated with Tm for 4 hrs in the absence or presence of MG-132 (10 μM), PS-341 (10 μM), Lactacystin (10 μM), ZL3VS (50 μM) or AdaAhxL3VS (50 μM), and XBP-1 mRNA splicing measured by RT-PCR analysis. (D) IRE-1α phosphorylation in NIH3T3 cells were treated with Tm as indicated after 2 hrs of pretreatment with MG-132 (10 μM).
Total RNA was prepared by using Trizol reagent, electrophoresed on 1.2% agarose, 6% formaldehyde gels and then transferred onto Genescreen Plus membrane, (NEN, Boston, Mass.). […] Probes for ERdj4 and p58^IPK were generated from cDNA excised from EST clones (ATCC, Manassas, Va.) using appropriate restriction enzymes (ERdj4, IMAGE: 1920927; p58^IPK, IMAGE:2646147).

Assay [3] concerns ERdj4 promoter. Briefly: ERdj4GL3 promoter luciferase reporter in MEF cells. The note with it: wt MEF, Tm 1 μg/ml 16 hours or cotransfected XBP-1s. On the procedure:
(A) Wild type and XBP-1^−/− MEF cells were treated with 10 μg/ml Tm for the indicated time periods. Total RNAs were isolated and subjected to Northern blot analysis. The same blot was hybridized sequentially with BiP, CHOP, ERdj4, p58^ipk, ATF6α and Gla probes. The p58^ipk probe is probe A, from the 5′ end of the gene. Ethidium bromide staining of the gel before blotting is shown at the bottom for loading control. (B) All isoforms of p58^ipk are XBP-1 dependent. Here, Northern blot analysis was performed with probe B which recognizes sequences at the 3′ end of the gene. (C) XBP-1-dependent genes are also IRE1α-dependent. Northern blot analysis of RNA prepared from IRE 1α^−/− MEFs treated with Tm for varying time periods and assessed for expression of ERdj4 and p58^ipk. (D) The ERdj4GL3 reporter was transfected with or without XBP-1s plasmid into wild type and XBP-1^−/− MEF cells. Cells were treated with Tm at 1 μg/ml for 16 hours before harvesting as indicated. Luciferase activity was normalized to the Renilla activity. (E) Induction of BiP, ERdj4 and p58^ipk in primary B cells by LPS. B220+ primary B cells were isolated from spleens of wildtype or XBP-1^−/− RAG2^−/− lymphoid chimeras. Cells were untreated or stimulated for three days with 20 μg/ml LPS. Expression of BiP, ERdj4 and p58^ipk was determined by Northern blot analysis […]

Regarding `CC(C)C[C@@H](C=O)NC(=O)[C@H](CC(C)C)NC(=O)[C@H](CC(C)C)NC(=O)OCc1ccccc1` [MG-132] (Cbz-Leu-Leu-Leu-aldehyde), the “effect on Tm-induced autophosphorylation of PERK” value in assay [1] is recorded as “a decrease in the autophosphorylation of PERK; also recorded: very marked decrease in the autophosphorylation of PERK”. Further, the “effect on Tm-induced XBP-1 mRNA splicing” value in assay [2] (J558, Tm 4 hrs, MG-132 10 μM, PS-341 10 μM, ZL3VS 50 μM, AdaAhxL3VS 50 μM) is on record as “suppressed by MG-132 in a dose dependent manner”. For the same molecule, in assay [2], the “XBP-1 mRNA splicing, agent alone (RT-PCR)” value is recorded as “did not induce any XBP-1mRNA splicing” and the “overall levels of XBP-1 RNA (Northern blot)” value is “not significantly altered”.
Take tunicamycin [Tm]: the “ERdj4 promoter luciferase reporter induction” value in assay [3] is “induced by Tm as well as by cotransfected XBP-1s”. The “amount of phosphorylated PERK” value in assay [1] is on record as “led to an increase in the amount of phosphorylated PERK”. Besides, in assay [2], the “XBP-1 mRNA splicing, agent alone (RT-PCR)” value is given as “markedly induced XBP-1 mRNA splicing” and the “overall levels of XBP-1 RNA (Northern blot)” value was “not significantly altered”.

B1: XBP-1s: vector encoding only the spliced form of murine XBP-1, a protein of 371 aa (protein)
chain: MVVVAAAPSAATAAPKVLLLSGQPASGGRALPLMVPGPRAAGSEASGTPQARKRQRLTHLSPEEKALRRKLKNRVAAQTARDRKKARMSELEQQVVDLEEENHKLQLENQLLREKTHGLVVENQELRTRLGMDTLDPDEVPEVEAKGSGVRLVAGSAESAAGAGPVVTSPEHLPMDSDTVASSDSESDILLGILDKLDPVMFFKCPSPESASLEELPEVYPEGPSSLPASLSLSVGTSSAKLEAINELIRFDHVYTKPLVLEIPSETESQTNVVVKIEEAPLSSSEEDHPEFIVSVKKEPLEDDFIPELGISNLLSSSHCLRPPSCLLDAHSDCGYEGSPSPFSDMSSPLGTDHSWEDTFANELFPQLISV
With B1, the “ERdj4 promoter luciferase reporter induction” value in assay [3] was “induced by Tm as well as by cotransfected XBP-1s”.
